Measurements as given in article PMC9640990 (Frontiers in Pharmacology, 2022).
Like-named read-outs stand apart in the source and are kept apart here.

Key:
[1] = Tissue distribution-based herb-drug interaction study in rats (CIP i.v., PCE i.g.); format: in vivo, Sprague-Dawley rats
hOAT1 = biological target: T1, hOAT1 (Homo sapiens, UniProt Q4U2R8); test: Inhibition of hOAT1-mediated uptake of 14C-PAH in hOAT1-MDCK cells; format: cell-based
T1 construct: host or cells: MDCK
T1 sequence (Q4U2R8 1-563): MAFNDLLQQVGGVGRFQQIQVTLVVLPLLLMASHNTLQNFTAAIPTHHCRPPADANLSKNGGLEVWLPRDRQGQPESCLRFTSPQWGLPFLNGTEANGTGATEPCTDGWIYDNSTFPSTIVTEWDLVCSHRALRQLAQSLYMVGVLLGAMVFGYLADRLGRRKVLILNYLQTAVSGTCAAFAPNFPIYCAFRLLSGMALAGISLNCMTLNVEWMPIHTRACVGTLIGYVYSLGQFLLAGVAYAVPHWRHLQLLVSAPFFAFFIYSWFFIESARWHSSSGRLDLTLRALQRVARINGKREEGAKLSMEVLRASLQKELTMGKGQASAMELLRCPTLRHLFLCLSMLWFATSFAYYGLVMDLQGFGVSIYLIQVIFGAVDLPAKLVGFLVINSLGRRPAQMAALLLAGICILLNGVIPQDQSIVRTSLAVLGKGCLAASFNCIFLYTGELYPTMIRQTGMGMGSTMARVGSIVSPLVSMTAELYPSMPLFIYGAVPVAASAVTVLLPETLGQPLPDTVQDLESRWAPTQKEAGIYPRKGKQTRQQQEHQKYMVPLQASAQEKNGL
Method: (§1) Stably expressing cell lines of hOAT1-MDCK, hOAT3-MDCK, hOCT2-S2, hMDR1-MDCK, hBCRP-MDCK, and their mock cells were obtained from Japan Fuji Biomedical Co., Ltd. The cells were maintained in DMEM (Sigma) supplemented with 10% FCS, 1% non-essential amino acids (Sigma), and 2% L-glutamine. The medium for the Transwell® plates (Corning Costar, Cambridge, MA, United States) was supplemented with 0.1% gentamicin. Membrane filters were placed in a 12 mm well with 1.5 and 0.5 ml of culture medium in the basolateral and apical compartments, respectively. Cells were cultured at 37°C in an atmosphere of 5% CO2.
(§2) Briefly, the hOAT1-MDCK, hOAT3-MDCK, and hOCT2-S2 cells were trypsinized and suspended in the culture medium to provide a density of 1.5 × 10^5 cells/ml. […] After cultivation for 7 days, cells were washed twice and equilibrated for 30 min at 37°C with the pre-warmed HBSS buffer. […] The content of DMSO was below 1% and constant in all inhibition experiments. All experiments were performed in triplicate. The cell lysate and 3.0 ml of aquasol-2 scintillation fluid were put into a scintillation flask. […] IC50 values were determined by employing GraphPad Prism 9.

[2] = not given; remark: listed apart in the source
hBCRP = biological target: T2, hBCRP (Homo sapiens, UniProt Q9UNQ0); test: hBCRP-mediated efflux of lucifer yellow in hBCRP-MDCK cells; format: cell-based; details: for efflux of BCRP-mediated lucifer yellow: concentration range 0.3 to 30 µM; for inhibitory effect on BCRP activity: hBCRP-MDCK cells, co-incubation 0.3 to 30 µM
T2 construct: host or cells: MDCK
T2 sequence (Q9UNQ0 1-655): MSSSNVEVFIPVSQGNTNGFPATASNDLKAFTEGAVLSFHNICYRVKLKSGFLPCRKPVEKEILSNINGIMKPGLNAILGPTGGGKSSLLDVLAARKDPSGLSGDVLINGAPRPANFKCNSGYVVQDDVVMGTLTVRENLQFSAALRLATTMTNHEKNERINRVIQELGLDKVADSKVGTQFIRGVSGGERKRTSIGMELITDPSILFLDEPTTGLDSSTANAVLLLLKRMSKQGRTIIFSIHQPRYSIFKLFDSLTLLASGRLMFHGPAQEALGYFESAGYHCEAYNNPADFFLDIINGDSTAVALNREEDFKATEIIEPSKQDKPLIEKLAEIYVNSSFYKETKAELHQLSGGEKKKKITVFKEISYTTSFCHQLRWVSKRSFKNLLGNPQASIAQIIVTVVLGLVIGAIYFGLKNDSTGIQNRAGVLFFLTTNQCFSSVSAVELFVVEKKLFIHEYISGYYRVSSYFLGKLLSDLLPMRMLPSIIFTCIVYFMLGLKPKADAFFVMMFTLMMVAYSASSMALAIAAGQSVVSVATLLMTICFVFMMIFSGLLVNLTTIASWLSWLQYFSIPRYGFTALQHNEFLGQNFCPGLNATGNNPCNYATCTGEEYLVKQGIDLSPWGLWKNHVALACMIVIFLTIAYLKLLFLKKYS
Method: as §1, §2

in vivo = details: male, Sprague-Dawley, rat, po, 0.72 g/kg; for Cmax: C max; for Vd/F: V z/F; for Tmax: t max, median (range); for k el: k e; for half-life: t 1/2, plasma PK-marker
clinical = details: male, human; for Cmax: C max; for Vd/F: V z/F; for k el: k e
hMDR1 = biological target: T3, hMDR1 (Homo sapiens, UniProt P08183); test: hMDR1-mediated efflux of rhodamine 123 in hMDR1-MDCK cells; format: cell-based; details: for efflux of MDR1-mediated rhodamine 123: concentration range 0.3 to 30 µM; for inhibitory effect on MDR1 activity: hMDR1-MDCK cells, co-incubation 0.3 to 30 µM
T3 construct: host or cells: MDCK

[3] = plasma, plasma PK-marker, rats, intragastric PCE 0.72 g/kg + CIP […]
[4] = plasma, plasma PK-marker, rats, intragastric PCE 0.72 g/kg alone
[5] = plasma, oral, plasma PK-marker, human subjects, multiple doses of PCE (8 g, TID, seven days) + CIP 0.5 g
[6] = plasma, oral, plasma PK-marker, human subjects, single dose of PCE (8 g) + CIP 0.5 g
[7] = plasma, po, plasma PK-marker, human subjects, oral single dose of PCE (8 g) alone
[8] = plasma PK-marker, human subjects, oral single dose of PCE (8 g) alone

T3 sequence (P08183 whole entry): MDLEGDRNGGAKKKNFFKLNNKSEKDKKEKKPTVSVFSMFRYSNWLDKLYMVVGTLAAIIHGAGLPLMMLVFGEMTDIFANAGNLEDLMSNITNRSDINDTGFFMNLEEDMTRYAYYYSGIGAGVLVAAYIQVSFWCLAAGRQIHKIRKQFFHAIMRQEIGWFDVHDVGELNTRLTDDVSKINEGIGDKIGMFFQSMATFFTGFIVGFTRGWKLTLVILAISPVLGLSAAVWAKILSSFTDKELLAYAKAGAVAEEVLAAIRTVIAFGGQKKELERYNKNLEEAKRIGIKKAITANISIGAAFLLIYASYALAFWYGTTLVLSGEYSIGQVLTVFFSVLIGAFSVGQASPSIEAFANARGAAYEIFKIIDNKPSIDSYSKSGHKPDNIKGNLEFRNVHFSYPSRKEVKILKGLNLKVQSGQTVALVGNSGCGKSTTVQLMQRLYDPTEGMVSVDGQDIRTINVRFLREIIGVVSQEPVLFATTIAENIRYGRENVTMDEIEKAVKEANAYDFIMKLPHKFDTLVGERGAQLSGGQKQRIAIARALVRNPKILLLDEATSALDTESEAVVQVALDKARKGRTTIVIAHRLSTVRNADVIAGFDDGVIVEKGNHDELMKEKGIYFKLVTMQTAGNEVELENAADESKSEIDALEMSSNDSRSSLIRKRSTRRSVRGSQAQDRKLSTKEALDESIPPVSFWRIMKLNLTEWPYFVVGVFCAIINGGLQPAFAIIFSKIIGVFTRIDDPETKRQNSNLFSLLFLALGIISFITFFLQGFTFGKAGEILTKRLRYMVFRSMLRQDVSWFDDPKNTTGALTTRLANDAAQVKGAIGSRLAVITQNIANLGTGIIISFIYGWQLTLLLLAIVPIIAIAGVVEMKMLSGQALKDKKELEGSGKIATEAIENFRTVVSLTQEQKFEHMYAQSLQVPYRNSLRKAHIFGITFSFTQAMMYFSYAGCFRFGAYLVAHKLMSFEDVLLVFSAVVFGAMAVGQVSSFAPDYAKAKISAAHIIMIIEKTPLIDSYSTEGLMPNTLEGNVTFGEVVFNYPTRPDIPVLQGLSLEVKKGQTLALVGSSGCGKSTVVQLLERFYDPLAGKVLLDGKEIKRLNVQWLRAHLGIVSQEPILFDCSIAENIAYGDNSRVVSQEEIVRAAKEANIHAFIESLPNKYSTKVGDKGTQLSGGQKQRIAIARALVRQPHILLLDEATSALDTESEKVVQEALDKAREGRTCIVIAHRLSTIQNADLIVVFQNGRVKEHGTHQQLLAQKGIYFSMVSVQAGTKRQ

SMILES: O=C(O)c1cc(O)c(O)c(O)c1 [GA, Gallic acid]
- order of C max in tissues ([1]; CIP + PCE group (PK-marker)): SVG > prostate > kidney > lung > plasma
- order of C max in tissues ([1]; PCE group): SVG > prostate > kidney > plasma > testis
- order of AUC 0-t in tissues ([1]; intragastric PCE in the absence and presence of CIP): SVG > prostate > kidney > testis > plasma
- change of C max by CIP ([1]; kidney and heart, p < 0.05): decreased
- CL/F (human, in vivo, po): 2.10 ± 0.64 L/h
- IC50 (hOAT1): 8.01 µM
- t 1/2 ([2]; male, Sprague-Dawley, rat, in vivo, po, 0.72 g/kg): 157 ± 107 min
- CL/F ([2]; rat, in vivo, po, 0.72 g/kg): 2.06 ± 0.85 L/h
- efflux of BCRP-mediated lucifer yellow (hBCRP): concentration-dependent increase
- inhibitory effect on BCRP activity (hBCRP): no inhibitory effect
- AUC(0-t) (in vivo; in vivo): 465 ± 171 ng·h/mL
- AUC(0-inf) (in vivo; in vivo): 483 ± 169 ng·h/mL
- Cmax (in vivo; in vivo): 134 ± 36.4 ng/mL
- Vd/F (in vivo; in vivo): 8.93 ± 9.83 L
- Tmax (in vivo; in vivo, plasma PK-marker, rats, intragastric PCE 0.72 g/kg alone): 90 min
- k el (in vivo; [3]): 0.000122 s⁻¹
- k el (in vivo; [4]): 9.72e-05 s⁻¹
- Tmax (clinical; in vivo, po): 52.8 min
- AUC(0-t) (clinical; in vivo, po): 242 ± 70 ng·h/mL
- AUC(0-inf) (clinical; in vivo, po): 248 ± 67 ng·h/mL
- Cmax (clinical; in vivo, po): 130 ± 32.7 ng/mL
- Vd/F (clinical; in vivo, po): 322 ± 295 L
- half-life (clinical; in vivo, po, t 1/2): 98.4 ± 55.2 min
- k el (clinical; [5]): 0.000117 s⁻¹
- k el (clinical; [6]): 0.000131 s⁻¹
- k el (clinical; [7]): 0.000142 s⁻¹
- efflux of MDR1-mediated rhodamine 123 (hMDR1): concentration-dependent increase
- inhibitory effect on MDR1 activity (hMDR1): no inhibitory effect

SMILES: O=C(O)c1ccc(O)c(O)c1 [PCA, protocatechuic acid]
- order of both AUC 0-t and C max in tissues ([1]; CIP + PCE group): prostate > SVG > kidney > testis > plasma
- order of both AUC 0-t and C max in tissues ([1]; PCE group): SVG > kidney > prostate > testis > spleen
- change of K p by CIP ([1]; each tissue, p > 0.05): did not significantly alter
- change of AUC 0-t by CIP ([1]; kidney, p < 0.05): decreased
- change of C max by CIP ([1]; prostate, p < 0.05): significantly increased
- CL/F (plasma PK-marker, human subjects, multiple doses of PCE (8 g, TID, seven days) + CIP 0.5 g): 5.78 ± 1.57 L/h
- C max [8]: 6.07 ± 1.48 ng/mL
- CL/F [8]: 5.64 ± 1.45 L/h
- CL/F (plasma PK-marker, human subjects, single dose of PCE (8 g) + CIP 0.5 g): 4.26 ± 0.91 L/h
- IC50 (hOAT1; hOAT1-MDCK cells, 14C-PAH 5 µM): 29.7 µM
- CL/F ([2]; plasma PK-marker, rats, intragastric PCE 0.72 g/kg + CIP […]): 6.67 ± 1.54 L/h
- CL/F ([2]; plasma PK-marker, rats, intragastric PCE 0.72 g/kg alone): 6.72 ± 2.19 L/h
- efflux of BCRP-mediated lucifer yellow (hBCRP): concentration-dependent increase
- inhibitory effect on BCRP activity (hBCRP): no inhibitory effect
- AUC(0-t) (in vivo; [3]): 6.37 ± 1.18 ng·h/mL
- AUC(0-t) (in vivo; [4]): 6.72 ± 2.39 ng·h/mL
- AUC(0-inf) (in vivo; [3]): 7.04 ± 1.55 ng·h/mL
- AUC(0-inf) (in vivo; [4]): 7.32 ± 2.39 ng·h/mL
- Cmax (in vivo; [3]): 6.69 ± 1.87 ng/mL
- Cmax (in vivo; [4]): 5.08 ± 1.82 ng/mL
- Vd/F (in vivo; [3]): 6.87 ± 2.54 L
- Vd/F (in vivo; [4]): 6.5 ± 3.16 L
- k el (in vivo; [3]): 0.000306 s⁻¹
- k el (in vivo; [4]): 0.000308 s⁻¹
- half-life (in vivo; plasma, rats, intragastric PCE 0.72 g/kg + CIP […]): 45.6 ± 25.8 min
- half-life (in vivo; plasma, rats, intragastric PCE 0.72 g/kg alone): 40.8 ± 12.6 min
- Tmax (in vivo; [3]): 30 min
- Tmax (in vivo; [4]): 30 min
- AUC(0-t) (clinical; [5]): 3.03 ± 0.9 ng·h/mL
- AUC(0-t) (clinical; [6]): 3.68 ± 1.15 ng·h/mL
- AUC(0-inf) (clinical; [5]): 3.35 ± 0.99 ng·h/mL
- AUC(0-inf) (clinical; [6]): 4.4 ± 0.93 ng·h/mL
- Cmax (clinical; [5]): 5.88 ± 1.66 ng/mL
- Cmax (clinical; [6]): 6.44 ± 2.57 ng/mL
- Vd/F (clinical; [5]): 150 ± 54.4 L
- Vd/F (clinical; [6]): 149 ± 65.6 L
- k el (clinical; [5]): 0.000697 s⁻¹
- k el (clinical; [6]): 0.000569 s⁻¹
- half-life (clinical; plasma, oral, t 1/2, plasma PK-marker, human subjects, multiple doses of PCE (8 g, TID, seven days) + CIP 0.5 g): 18.6 ± 8.4 min
- half-life (clinical; plasma, oral, t 1/2, plasma PK-marker, human subjects, single dose of PCE (8 g) + CIP 0.5 g): 25.2 ± 11.4 min
- Tmax (clinical; plasma, po): 19.8 min
- AUC(0-t) (clinical; [7]): 2.84 ± 0.72 ng·h/mL
- AUC(0-inf) (clinical; [7]): 3.39 ± 0.94 ng·h/mL
- Vd/F (clinical; [7]): 148 ± 23.9 L
- k el (clinical; [7]): 0.000656 s⁻¹
- half-life (clinical; plasma, po, t 1/2, plasma PK-marker, human subjects, oral single dose of PCE (8 g) alone): 19.2 ± 6.6 min
- efflux of MDR1-mediated rhodamine 123 (hMDR1): concentration-dependent increase
- inhibitory effect on MDR1 activity (hMDR1): no inhibitory effect
